Measured values reported in patent US12053452B2 (priority 2021, dated 2024).
“Also recorded” adds a separate entry of the source. Counter-ions that a name gives are not always drawn. Like-named read-outs stand apart in the source and are kept apart here.

Columns and labels:
[1] = human urine, after racemic MDMA; cited from earlier work
[2] = system: C57 mice; details: mouse, in vivo; for locomotor activity: ip
[3] = system: C57 mice; test: Novelty preference test, C57; assay type: in vivo
Protocol: (§1) This assay was conducted in adult male C57 and BTBR mice (n=6 per group) in a dedicated conditioning room where ambient light, sound, and human contact were tightly controlled. Social preference chambers consist of two polycarbonate boxes (13.5 cm wide×22.5 cm tall×31.0 cm deep), floored with rough-textured black ABS plastic, and connected to one another by a 1.25″ PVC T-junction. An infrared photobeam emitter/detector array is mounted at each intersection of the T-junction and each preference compartment, and as a mouse traversed the apparatus, it would break the photobeam upon entry to or exit from each preference compartment. Beam breaks started or stopped a counter on an interfaced computer, allowing automated collection of time spent in each compartment. At the end of each test, data were reported as time (in seconds) spent in each compartment, the number of entries into each compartment, and the average time spent in each compartment following an entry. Social preference tests were conducted in an iterative manner, with each test subject completing four distinct phases as described below. Between testing sessions, chambers were sanitized by wiping the insides with a disinfectant product provided by the UAMS Department of Laboratory Animal Medicine. At the end of the week (upon completion of all phases of the procedure), each apparatus was disassembled and all parts were sanitized. No food or water were available during social preference sessions, but were available in the home cage immediately afterwards.
A single novelty preference session occurred the day after the habituation test, where one compartment contained an empty wire mesh cup and the other compartment contained an identical wire mesh cup with a novel dummy mouse inside. The position of the dummy mouse (left or right compartment) was counterbalanced across subjects. Dummy mice were constructed from 2.5″ lengths of white ¾″ PVC pipe, with a zip tie attached to one end (to mimic a tail) and two red dots drawn on the other end (to mimic eyes.) During this session, mice were weighed, administered an injection, and returned to their home cage for a 30 min pretreatment period. Mice were then introduced into the T-junction and allowed to explore both preference compartments for 15 minutes. These tests were conducted as a procedural control to ensure that any observed drug effects were not simply due to enhancement of the innate novelty preference of mice. Novelty preference sessions always occurred on Tuesdays or Wednesdays to prevent any weekend testing.

[4] = system: C57 mice; test: Sociability test, C57; assay type: in vivo
Protocol: as §1
A single sociability session occurred the day after the novelty preference test, where one compartment contained a wire mesh cup with a dummy mouse inside while the other compartment contained a male NIH Swiss stranger mouse inside the previously empty cup. […] The position of the dummy mouse (left or right compartment) remained the same for each subject as during the novelty test the day before, thereby counterbalancing the position of the stranger mouse across subjects. NIH Swiss stranger mice were similar in mass and appearance to the dummy PVC mice, and were housed separately from the experimental subjects (C57 and BTBR mice) in the colony facility. The first time the experimental subjects ever encountered the stranger mice was when they entered the compartment where they were contained. During this session, mice were weighed, administered the same injection as the day before, and returned to their home cage for a 30 min pretreatment period. Mice were then introduced into the T-junction and allowed to explore both preference compartments for 15 minutes. Sociability tests always occurred on Wednesdays or Thursdays to prevent any weekend testing.

[5] = system: C57 mice; test: Social novelty preference test, C57; assay type: in vivo
Protocol: as §1
A single social novelty preference session occurred the day after the sociability test, where one compartment contained a wire mesh cup with the same NIH Swiss mouse from the previous day inside (referred to now as the “familiar” mouse) while the other compartment contained a new male NIH Swiss stranger mouse inside the cup which previously contained the dummy mouse during the sociability test. […] The position of the now familiar NIH Swiss mouse (left or right compartment) remained the same for each subject as during the sociability test the day before, thereby counterbalancing the position of the new NIH Swiss stranger mouse across subjects. As before, the new NIH Swiss stranger mice were housed separately from the experimental subjects (C57 and BTBR mice) in the colony facility, and the first time the experimental subjects ever encountered them was when they entered the compartment where they were contained. During this session, mice were weighed, administered the same injection as the day before, and returned to their home cage for a 30 min pretreatment period. Mice were then introduced into the T-junction and allowed to explore both preference compartments for 15 minutes. Social novelty tests always occurred on Thursdays or Fridays to prevent any weekend testing.

[6] = system: C57 mice; test: Social preference procedure: compartment entries (proxy for locomotor stimulant effects), C57; assay type: in vivo; details: 10 mg/kg IP, social novelty test, 10 mg/kg
Protocol: as §1
(§2) Quantification of total entries into the preference compartments provided a proxy measurement for locomotor stimulant effects of the various doses of the various test drugs. This established a limit to the drug doses that can be tested in the social preference procedure, as induction of locomotor stimulant effects confounds preference assessments (because mice stop attending to the social stimuli in each compartment and instead spend their time engaged in locomotor behavior.) Motor activity varied across the distinct phases of social preference testing, in part because the habituation session is twice as long (30 minutes) as the novelty, sociability, and social novelty tests (15 minutes each), but also because mice emitted high levels of exploratory behavior in novel environments. Thus, as familiarity with the test apparatus increased over successive exposures to the chambers, the number of entries decreased.
(§3) (Note that entries were collected for every test, but drug effects on entries during earlier phases may be less reliable due to the confounding influence of changing familiarity with the apparatus across phases.)

[7] = system: BTBR mice; test: Social preference procedure: compartment entries (proxy for locomotor stimulant effects), BTBR; assay type: in vivo
Protocol: as §1, §2, §3

[8] = system: BTBR mice; test: Social novelty preference test, BTBR (autism spectrum disorder model); assay type: in vivo; details: in vivo mice models of autism spectrum disorder (BTBR)
Protocol: as §1
A single social novelty preference session occurred the day after the sociability test, where one compartment contained a wire mesh cup with the same NIH Swiss mouse from the previous day inside (referred to now as the “familiar” mouse) while the other compartment contained a new male NIH Swiss stranger mouse inside the cup which previously contained the dummy mouse during the sociability test. […]

[9] = system: C57 mice; test: Radiotelemetry of core temperature, C57; assay type: in vivo
Protocol: (§4) The radiotelemetry assay was conducted in adult male C57 and BTBR mice (n=6 per group) in a dedicated testing room where ambient light, sound, and human contact were tightly controlled.
(§5) Prior to surgical implantation of radiotelemetry probes, mice received 3 mg/kg meloxicam (IP), and anesthesia was induced with 4% inhaled isoflurane and maintained with 1-3% isoflurane (as needed) throughout the procedure at a flow rate of 1.5 litres/minute. The abdominal area of each animal was treated with depilatory cream, then sanitized with 3 alternating scrubs with iodine and alcohol. A rostral-caudal cut approximately 1.5 cm in length was made with sterile skin scissors, providing access to the intraperitoneal cavity. A cylindrical glass-encapsulated radiotelemetry probe (model ER-4000 E-Mitter, Mini Mitter, Bend, OR, USA) was then inserted. These probes measure 15.5 mm×6.5 mm and weigh approximately 1 gram. Incisions were closed (skin layer and muscle layer separately) using reverse cutting 5-0 Vicryl absorbable sutures for the muscle layer and 5-0 nylon suture material for the skin layer. Surgeries were carried out at least 7 days before initiation of experimental conditions, allowing time for incisions to heal and for animals to recover normal body weights. Following surgery, all implanted mice were individually housed in Plexiglas cages within the telemetry room for the duration of all experiments. Implanted transmitters produce activity- and temperature-modulated signals which are sent to a receiver (model ER-4000 Receiver, Mini Mitter Co., Inc.) underneath each cage. Following use, telemetry probes were removed from carcasses, wiped with alcohol swabs, and stored in the disinfectant solution until re-use.
(§6) At least 7 days after surgical implantation of radiotelemetry probes, mice in their individual home cages were placed atop a telemetry energizer/receiver, which powered probes and transmitted their data to an interfaced computer. Upon initiation of an experimental session, the computer collected two data updates from the probes at 5 min intervals: core temperature (in ° C.) on one channel, and locomotor counts (in arbitrary units, depending on the relative position of the probe atop the receiver) on the other. After at least 60 minutes of baseline data collection, mice were removed from their cages, injected with saline or a given dose of a specific drug, then returned to the home cage 24 hours of data collection.
(§7) Food and water were always freely available in the home cage. Mice were injected with ascending doses of a given drug, with at least 48 hours separating doses. Because there are few studies of drug effects in BTBR mice, the first drug dose tested occasionally elicited unexpectedly large locomotor effects in these animals. In these cases, smaller drug doses were tested next, after a washout period of at least one full day.

[10] = system: BTBR mice; test: Radiotelemetry of core temperature, BTBR; assay type: in vivo
Protocol: as §4, §5, §6, §7

[11] = system: BTBR mice; test: Radiotelemetry of locomotor activity, BTBR; assay type: in vivo; details: 0 to 240 minutes
Protocol: as §4, §5, §6, §7

CNC(C)Cc1ccc(OS(=O)(=O)O)c(OC)c1 (stereo not shown) [HMMA sulfate]
enantiomer with higher Cmax [1]: Higher R-enantiomer Cmax

CN[C@@H](C)Cc1ccccc1 [S(+)-methamphetamine, S-methamphetamine]
locomotor activity, strain comparison C57 vs BTBR [2]: no significant strain differences observed at any dose | locomotor effects vs saline [2]: effects were not different from saline

CN[C@@H](C)Cc1ccccc1 [methamphetamine]
novelty preference (time spent with the dummy mouse) ([3]; various doses IP): no systematic effects on novelty preference | sociability (time spent with the stranger mouse vs dummy) ([4]; various doses IP): no systematic effects on sociability | social novelty preference (new stranger mouse vs familiar mouse) ([5]; various doses IP): no systematic effects on social novelty preference

CN[C@H](C)Cc1ccc2c(c1)OCO2 [R(−)-MDMA, (2R)-1-(1,3-benzodioxol-5-yl)-N-methylpropan-2-amine]
compartment entries (locomotor stimulant effect) [6]: did not increase compartment entries; also recorded: had no effects on locomotor activity | compartment entries (locomotor stimulant effect) ([6]; listed as R-(−) MDMA): no stimulant effect on the motor activity | compartment entries (locomotor stimulant effect) ([7]; 3.0 mg/kg IP, social novelty test, 3 mg/kg): reduced entries; also recorded: suppresses the locomotor activity | compartment entries (locomotor stimulant effect) ([7]; all tested doses IP): do not influence locomotor activity | novelty preference (time spent with the dummy mouse) ([3]; 10.0 mg/kg IP): had no effects on locomotor activity (see FIG. 4) or novelty preference | novelty preference (time spent with the dummy mouse) ([3]; various doses IP): no systematic effects on novelty preference | sociability (time spent with the stranger mouse vs dummy) ([4]; 3.0 mg/kg IP): elicit significant effects on sociability | sociability (time spent with the stranger mouse vs dummy) ([4]; 10.0 mg/kg IP): largest effect on sociability | social novelty preference (new stranger mouse vs familiar mouse) ([5]; 3.0 mg/kg IP): elicit significant effects on sociability | social novelty preference (new stranger mouse vs familiar mouse) ([5]; 10 mg/kg IP, 10 mg/kg): largest effect on social novelty preference | social novelty preference (new stranger mouse vs familiar mouse) ([5]; 10 mg/kg IP, listed as R-MDMA, 10 mg/kg): strong preference for the new stranger mouse | pro-social behaviour [8]: promotes pro-social behaviour | effect on core temperature ([9]; 10 mg/kg IP): neither of the mixtures (e.g., exemplary composition 2(i)) nor pure R(−)-MDMA (e.g., exemplary composition 7) elicited significant effects on the core temperature | effect on core temperature ([9]; 30 mg/kg IP): neither of the mixtures nor pure R(−)-MDMA elicited significant effects on the core temperature | effect on core temperature ([10]; 30 mg/kg IP): no significant effects on core temperature were observed | effect on core temperature ([10]; various/increasing doses IP): did not elicit significant effects on core temperature | locomotor activity ([11]; 10 mg/kg IP): no significant motor stimulation was observed | locomotor activity ([11]; 30 mg/kg IP): no significant motor stimulation was observed | locomotor activity ([2]; 10 mg/kg): did elicit significant motor stimulation | locomotor activity ([2]; 30 mg/kg): did not elicit significant motor stimulation

CNC(C)Cc1ccc(OC2OC(C(=O)O)C(O)C(O)C2O)c(OC)c1 (stereo not shown) [HMMA glucuronide]
enantiomer with higher Cmax [1]: S-enantiomers were higher

CC(N)Cc1ccc2c(c1)OCO2 (racemic) [MDA, (±)-3,4-methylenedioxyamphetmaine]
enantiomer with higher Cmax [1]: S-enantiomers were higher
